Assay results published in patent US20240024346A1, “CD73 INHIBITORS AND PHARMACEUTICAL USES THEREOF” (RISEN (SUZHOU) PHARMA TECH CO., LTD., priority 2020, published 2024).
Where two headings read alike, the source gives them in different places.

Tests used:
CD73 protein = target: T1, CD73 protein (Homo sapiens, UniProt P21589); assay: CD73 enzyme inhibition assay (Malachite Green Phosphate Detection Kit); format: biochemical; conditions: for inhibitory activity in the CD73 enzyme assay: result in words; for IC50: Tris-HCl pH 7.3, read-out: Potency (IC50 class) in CD73 enzyme assay
T1 construct: purchased Novoprotein C446
T1 sequence (P21589 27-549): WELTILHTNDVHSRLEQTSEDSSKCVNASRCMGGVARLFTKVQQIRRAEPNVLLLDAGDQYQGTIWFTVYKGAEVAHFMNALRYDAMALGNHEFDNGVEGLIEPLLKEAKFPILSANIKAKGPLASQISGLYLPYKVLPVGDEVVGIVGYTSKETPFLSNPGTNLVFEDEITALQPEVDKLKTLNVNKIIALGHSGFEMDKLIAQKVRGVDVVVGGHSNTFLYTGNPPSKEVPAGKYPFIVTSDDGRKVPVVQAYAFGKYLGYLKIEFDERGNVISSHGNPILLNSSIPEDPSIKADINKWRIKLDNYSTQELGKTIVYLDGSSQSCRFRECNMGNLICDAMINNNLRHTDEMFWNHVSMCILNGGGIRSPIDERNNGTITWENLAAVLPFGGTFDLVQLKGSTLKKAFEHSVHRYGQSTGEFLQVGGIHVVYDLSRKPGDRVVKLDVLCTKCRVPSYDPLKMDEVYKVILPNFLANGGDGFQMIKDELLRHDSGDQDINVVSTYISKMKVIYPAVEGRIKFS
Procedure: To evaluate the inhibitory effect of selected compounds on CD73, Malachite Green Phosphate Detection Kit (R&D, Cat #DY996) was used. Briefly, compounds were dissolved and diluted to the desired concentration using phosphate-free buffer (Tris-HCl, pH 7.3). 25 μL of the compound solution was added to an equal volume of CD73 protein solution (2×concentration, 0.5 μg/mL, Novoprotein, Cat #C446), followed by a 5-minute incubation at room temperature. 10 μL of Malachite Green Reagent A was added to each well, mixed thoroughly and incubated for 10 minutes at room temperature. 10 μL of Malachite Green Reagent B was then added to each well, mixed thoroughly and incubated for 20 minutes at room temperature. Finally, the optical density of each well was determined using a microplate reader set to 620 nm.

[1] = Pharmacokinetic evaluation in ICR mice after intravenous injection; format: in vivo; conditions: mouse; ICR male mice, 1.0 mg/kg intravenous, plasma
Procedure: A test compound (1.0 mg/kg) was administered to fasted ICR male mice via intravenous injection, and blood samples were collected at time points of 0.08, 0.25, 0.5, 1, 2, 4, 6, 8 and 24 h after the administration. Plasma sample was separated by centrifugation (8000 rpm) and stored at −80° C. until the sample was analyzed. Concentrations of the test compound in the plasma were determined by HPLC-MS/MS: the plasma was dispensed into appropriate tubes containing internal standard and methanol or acetonitrile. The tubes were mixed vigorously for 3 minutes to achieve deproteinization and then centrifuged at 8000 rpm for 5 minutes. The supernatant was transferred to an autosampler vial, injected into the chromatographic system, and quantified on MS/MS detector. Pharmacokinetic parameters including AUC0-4, Cmax, Tmax, t1/2, MRT, Cl and Vd were calculated using WinNonlin 6.3 software. Table 3 summarizes key PK parameters for test compounds (AUC(0-t): the area under the curve from time 0 to time t; AUC(0-∞): the area under the curve from time 0 to infinity; t1/2: Half-life; CL: clearance; C0: the concentration of drug in blood if the drug molecules enter the circulation and are distributed immediately (i.e., at time 0)).

[2] = target: T2, Recombinant human 5′-nucleotidase (hCD73) (Homo sapiens, UniProt P21589); assay: CD73 enzyme inhibition assay (recombinant hCD73, AMP substrate, phosphate detection); format: biochemical; conditions: 37° C. 20 min, absorbance 635 nm
T2 sequence (P21589 27-549): T1 sequence (P21589 27-549)
Procedure: Test compound solution preparation: Stock solution of a test compound was prepared in DMSO at 10 mM concentration. A series of preset 10-concentration solutions of a test compound were prepared by diluting the stock solution in 5-fold gradient dilution with DMSO.
Assay buffer (1×): […] Tris, 25 mM NaCl, 1 mM MgCl2, pH 7.5, 0.005% Tween-20 (freshly prepared, and ready for use).
An aliquot of 0.25 μL of compound solution or DMSO (blank control) was added to each test well of a micro well plate. Recombinant human 5′-nucleotidase (hCD73) was diluted to 1 nM in assay buffer; and an aliquot of 25 μL hCD73 (1 nM) solution was added to the corresponding wells of the plate. The contents of the well were well-mixed, and the plate was covered with sealing film, centrifuged at 1000 rpm for 30 sec., followed by incubation at room temperature for 15 min. AMP, the substrate, was diluted to 60 μM concentration in the assay buffer. To each reaction well was added 25 μL of AMP solution. After mixing well, the plate was covered with sealing film, centrifuged at 1000 rpm for 30 sec., and incubated at 37° C. for 20 min. The absorbance signal (end point) was measured on SPARK plate reader at 635 nm (See PiColorLock™ Gold Phosphate Detection System (Abcam) test kit for reference).
The reaction wells containing CD73 enzyme, substrate AMP and DMSO (no compound) were used as positive control, and the reaction wells containing substrate AMP and DMSO but no CD73 enzyme were used as negative control. The percent (%) inhibition at each concentration of compound was calculated based on and relative to the signal in the High and Low control wells contained within each assay plate. The High control wells were considered as 0% inhibition, and the low control wells, which didn't contain any compound but rather DMSO (final concentration=0.5%), as 100% inhibition. IC50 values were obtained using GraphPad Prism software.

human T cell = assay: CD73 cellular assay (T cell stimulation assay: CellTiter-Glo proliferation and IFN-γ ELISA); format: cell-based; conditions: human T cells, anti-CD3/CD28, AMP + EHNA, 72 hours
Procedure: Day 2, human T cell seeding: (a) washing the coated plate (from Day 1) with sterilized PBS buffer (2×100 uL); (b) re-suspending T cells and adjusting cell density to 0.5×10^6 cells/mL with growth media (X-VIVO 15+1% Pen/strep+1% glutamine), and seeding 100 μL/well (50,000 cells/well) in 96-well plates; (c) diluting CD28 antibody for 8× working concentration (8 μg/mL) with growth media, giving 1 μg/mL of the final concentration, followed by addition of CD28 antibody (25 μL) to cell plate; incubating the plates under 5% CO2 at 37° C. for 60 min; (d) adding compound (25 μL, 8×dilution with growth media) to cell plate, and incubating the plates under 5% CO2 at 37° C. for 60 min; (e) adding AMP (25 μL) and EHNA (25 μL, 8×dilution with growth media) to cell plate; (f) incubating the plates under 5% CO2 at 37° C. for 72 hours.
Day 5, collecting cell growth media and testing cell proliferation: (a) centrifuging the cell plate (1,000 rpm) for 5 min; (b) harvesting 150 μL of the cell culture media from each well to 96 well plate, followed by measurement of IFN-r expression by ELISA test; (c) taking a portion of the cell culture supernatant for cytokine analysis, removing the remaining supernatant, followed by addition of fresh growth media (X-VIVO 15+1% Pen/strep+1% glutamine, 100 μL); (d) adding Celltiter-Glo solution (50 μL) into each well for the measurement of cell proliferation by: (e) incubating the plates at room temperature for 10 min on a shaker; (f) transferring 100 μL solution into 96-well white plate and taking the readout of the Celltiter-Glo data using a TECAN Reader.

clearance [1] [mL/min/kg] | IC50 [2] [nM] | IC50 (CD73 protein) [nM] | SMILES | also measured
 |  |  | O=P(O)(O)CP(=O)(O)CC[C@H]1O[C@@H](n2cnc3c(N4CCC5(CCCCC5)C4)nc(Cl)nc32)C(O)C1O (stereo partly drawn) [a-31] | inhibitory activity in the CD73 enzyme assay (CD73 protein): showed inhibitory activity
2.55 |  |  | O=P(O)(O)CP(=O)(O)OC[C@H]1O[C@@H](n2cnc3c(N4CCC5(CCCc6ccccc65)C4)nc(Cl)nc32)[C@@H](O)C1O (stereo partly drawn) [d-6] | 
 | 0.75 |  | O=P(O)(O)CP(=O)(O)OC[C@H]1O[C@@H](n2cnc3c(N4CCC5(CCc6ccccc65)C4)nc(Cl)nc32)C(O)C1O (stereo partly drawn) [d-8] | 
0.133 | 1.29 |  | O=P(O)(O)CP(=O)(O)OC[C@H]1O[C@@H](n2cnc3c(N4CC5(CCC5)c5ccccc54)nc(Cl)nc32)[C@@H](O)C1O (stereo partly drawn) [d-20] | 
 |  | > 100 | CCCCCCCCCCCCN(CCCCCCCCCCCC)c1nc(Cl)nc2c1ncn2[C@@H]1O[C@H](COP(=O)(O)CP(=O)(O)O)C(O)C1O (stereo partly drawn) [Compound 19] | 
 |  | < 10 | O=P(O)(O)CP(=O)(O)OC[C@H]1O[C@@H](n2cnc3c(N4CCC5(CCCCC5)C4)nc(Cl)nc32)C(O)C1O (stereo partly drawn) [Compound 31] | 
0.0833 | 1.8 |  | O=P(O)(O)CP(=O)(O)OC[C@H]1O[C@@H](n2cnc3c(N4CC5(CCCCC5)c5ccccc54)nc(Cl)nc32)[C@@H](O)C1O (stereo partly drawn) [d-7] | 
 |  | 10 to 100 | CC1(C)[C@@H]2CC[C@@]1(C)C(OC(=O)Nc1nc(Cl)nc3c1ncn3[C@@H]1O[C@H](COP(=O)(O)CP(=O)(O)O)C(O)C1O)C2 (stereo partly drawn) [Compound 23] | 
 |  | < 10 | O=P(O)(O)CP(=O)(O)OC[C@H]1O[C@@H](n2cnc3c(NC45CC6CC(CC(C6)C4)C5)nc(Cl)nc32)C(O)C1O (stereo partly drawn) [Compound 22] | 
1.7 | 0.4 |  | O=P(O)(O)CP(=O)(O)OC[C@H]1O[C@@H](n2cnc3c(N4CC5(CCCc6ccccc65)C4)nc(Cl)nc32)[C@@H](O)C1O (stereo partly drawn) [d-12] | 
 |  | < 10 | CCCCCCCCCCCCOC(=O)Nc1nc(Cl)nc2c1ncn2[C@@H]1O[C@H](COP(=O)(O)CP(=O)(O)O)C(O)C1O (stereo partly drawn) [Compound 15] | 
 |  |  | O=P(O)(O)CP(=O)(O)CC[C@H]1O[C@@H](n2cnc3c(NCc4ccccc4)nc(Cl)nc32)C(O)C1O (stereo partly drawn) [a-1] | inhibitory activity in the CD73 enzyme assay (CD73 protein): showed inhibitory activity
 |  | < 10 | O=P(O)(O)CP(=O)(O)OC[C@H]1O[C@@H](n2cnc3c(N4C5CCC4CC(O)C5)nc(Cl)nc32)C(O)C1O (stereo partly drawn) [Compound 51] | 
0.7 |  |  | C[C@H](Nc1cc(Cl)nc2c1cnn2[C@@H]1O[C@H](COP(=O)(O)CP(=O)(O)O)[C@@H](O)[C@H]1O)c1ccccc1F [Compound a, AB680, reference compound] | 
2.28 | 1.42 |  | O=P(O)(O)CP(=O)(O)OC[C@H]1O[C@@H](n2cnc3c(N4CCC5(CC4)Cc4ccccc4C5)nc(Cl)nc32)[C@@H](O)C1O (stereo partly drawn) [d-21] | 
 |  | 10 to 100 | O=C(CC12CC3CC(CC(C3)C1)C2)Nc1nc(Cl)nc2c1ncn2[C@@H]1O[C@H](COP(=O)(O)CP(=O)(O)O)C(O)C1O (stereo partly drawn) [Compound 16] | 
 |  |  | C[C@]12C[C@@H]3C[C@](C)(C1)C[C@@](Nc1nc(Cl)nc4c1ncn4[C@@H]1O[C@H](CCP(=O)(O)CP(=O)(O)O)C(O)C1O)(C3)C2 (stereo partly drawn) [a-9] | inhibitory activity in the CD73 enzyme assay (CD73 protein): showed inhibitory activity
 | 1.86 |  | O=P(O)(O)CP(=O)(O)OC[C@H]1O[C@@H](n2cnc3c(N4CC(c5ccccc5)C(c5ccccc5)C4)nc(Cl)nc32)C(O)C1O (stereo partly drawn) [d-36] | 
 | 1.39 |  | O=P(O)(O)CP(=O)(O)OC[C@H]1O[C@@H](n2cnc3c(N4CC(c5ccccc5)(c5ccccc5)C4)nc(Cl)nc32)C(O)C1O (stereo partly drawn) [d-35] | 
 |  | < 10 | C[C@]12C[C@@H]3C[C@](C)(C1)C[C@@](Nc1nc(Cl)nc4c1ncn4[C@@H]1O[C@H](COP(=O)(O)CP(=O)(O)O)C(O)C1O)(C3)C2 (stereo partly drawn) [Compound 9] | 
0.75 | 0.73 |  | O=P(O)(O)CP(=O)(O)OC[C@H]1O[C@@H](n2cnc3c(N4CC5(Cc6ccccc6C5)C4)nc(Cl)nc32)[C@@H](O)C1O (stereo partly drawn) [d-9] | 
 |  | < 10 | O=P(O)(O)CP(=O)(O)OC[C@H]1O[C@@H](n2cnc3c(NCc4ccc5ccccc5c4)nc(Cl)nc32)C(O)C1O (stereo partly drawn) [Compound 7] | 
0.05 | 1.5 |  | O=P(O)(O)CP(=O)(O)OC[C@H]1O[C@@H](n2cnc3c(N4CC5(CCCC5)c5ccccc54)nc(Cl)nc32)[C@@H](O)C1O (stereo partly drawn) [d-13] | 
 |  | < 10 | O=P(O)(O)CP(=O)(O)OC[C@H]1O[C@@H](n2cnc3c(NCc4ccccc4)nc(Cl)nc32)C(O)C1O (stereo partly drawn) [Compound 1] | 
0.1 |  |  | O=P(O)(O)CP(=O)(O)OC[C@H]1O[C@@H](n2cnc3c(N4CC5(CCCCCC5)c5ccccc54)nc(Cl)nc32)[C@@H](O)C1O (stereo partly drawn) [d-22] | 
 | 1.76 |  | O=P(O)(O)CP(=O)(O)OC[C@H]1O[C@@H](n2cnc3c(N4CCC(c5ccccc5)(c5ccccc5)C4)nc(Cl)nc32)C(O)C1O (stereo partly drawn) [d-33] | EC50 (human T cell; read-out: EC50 CTG (CellTiter-Glo, cell proliferation)): 4.07 nM; EC50 (human T cell; read-out: EC50 IFN-γ (ELISA, indicator for T-cell activity)): 2.53 nM
 |  | < 10 | O=P(O)(O)CP(=O)(O)OC[C@H]1O[C@@H](n2cnc3c(NCc4cccc5ccccc45)nc(Cl)nc32)C(O)C1O (stereo partly drawn) [Compound 6] | 
 | 1.92 |  | O=P(O)(O)CP(=O)(O)OC[C@H]1O[C@@H](n2cnc3c(N4CC(c5ccccc5)c5ccccc54)nc(Cl)nc32)C(O)C1O (stereo partly drawn) [Compound d-38] | 
